Patent US20030110524A1, “TRANSGENIC ORGANISMS AND THEIR USES” (priority 1997, published 2003)

Tests used:
[1] = tested on: lung fibroblast cells derived from control rats; assay: Survival of lung fibroblast cells from control rats with drugs; type: cell-based, rat; settings: for Survival of lung fibroblast cells (related to number of cells in control cultures without drug): control rat cells, drugs added at day 2, geneticin 400 μg/ml, 5FC 100 μg/ml
Procedure: (§1) Fibroblast cultures derived from lung of adult CD2/neo^r, TG/TK/neo^r and control animals were produced and expanded by routine methods (Freshney (1987), Alan R. Liss, New York). Twenty-four hours after plating, geneticin (400 μg/ml) was added to cultures originating from both types of transgenic rats and from control rats, and replaced every three days with fresh medium. When required, cells were subcultured (1:3) to prevent them becoming confluent, again by basic culture methods (Freshney 1987). Cell counts were made manually in 20 fields chosen randomly and the values at each time point, after allowing for changes due to subculturing, were aggregated. […] In the absence of added geneticin, no change in cell survival from either of the transgenic animals was observed.
(§2) The effects of 5-fluorocytosine (5FC) were also determined. 5-fluorocytosine at a concentration of 100 μg/ml had no effect on fibroblast cells derived from control animals or from the TG/TK/neo^r transgenic. In the cells derived from the CD2/neo^r transgenic animal, however, 94% of the originally-plated cells died, or were non-functional (as determined by their failure to exclude trypan blue) after 10 days culture in the presence of 5FC (Table 2).
(§3) Drugs were added at day 2 in culture. Values are related to the number of cells found in control cultures without drug additions at various times after plating, and allowing for dilutions resulting from passaging. Figures are the means of three separate determinations, the standard errors all being less than 15% of the mean.

[2] = tested on: lung fibroblast cells derived from TG/TK/neo^r transgenic rats; assay: Survival of lung fibroblast cells from TG/TK/neo^r transgenic rats with drugs; type: cell-based, rat; settings: for Survival of lung fibroblast cells (related to number of cells in control cultures without drug): TG/TK/neo^r rat cells, drugs added at day 2, geneticin 400 μg/ml, 5FC 100 μg/ml
Procedure: as §1, §2, §3

[3] = tested on: lung fibroblast cells derived from CD2/neo^r transgenic rats; assay: Survival of lung fibroblast cells from CD2/neo^r transgenic rats with drugs; type: cell-based, rat; settings: for Survival of lung fibroblast cells (related to number of cells in control cultures without drug): CD2/neo^r rat cells, drugs added at day 2, geneticin 400 μg/ml, 5FC 100 μg/ml
Procedure: as §1, §2, §3

[4] = tested on: thyroid cells derived from control rats; assay: Survival of thyroid cells from control rats with drugs; type: cell-based, rat; settings: for Survival of thyroid cells (related to number of cells in control cultures without drug): control rat cells, drugs added at day 2, geneticin 400 μg/ml, ACG 10 μg/ml
Procedure: (§4) Thyroid cultures derived from the thyroid gland of adult CD2/neo^r, TG/TK/neo^r and control animals were produced by routine methods (Freshney, 1987). Twenty-four hours after plating, geneticin (400 μg/ml) was added to cultures originating from both types of transgenic and the control rats, and replaced every three days with fresh medium. When required, cells were subcultured (1:2) to prevent their becoming confluent. Cell counts were made manually in 20 fields chosen randomly, and the values at each time point, after allowing for changes due to subculturing, were aggregated (Table 3). […] Ten days later, cell counts were again made of 20 fields chosen at random. […] The results were as expected in view of the specific and non-specific expression of the positive and negative selection markers, in the TG/TK/neo^r and CD2/neo^r transgenics, respectively.
as §3, with “allow” for “allowing”

[5] = tested on: thyroid cells derived from TG/TK/neo^r transgenic rats; assay: Survival of thyroid cells from TG/TK/neo^r transgenic rats with drugs; type: cell-based, rat; settings: for Survival of thyroid cells (related to number of cells in control cultures without drug): TG/TK/neo^r rat cells, drugs added at day 2, geneticin 400 μg/ml, ACG 10 μg/ml
Procedure: as §4
as §3, with “allow” for “allowing”

[6] = tested on: thyroid cells derived from CD2/neo^r transgenic rats; assay: Survival of thyroid cells from CD2/neo^r transgenic rats with drugs; type: cell-based; settings: CD2/neo^r rat cells, drugs added at day 2, geneticin 400 μg/ml, ACG 10 μg/ml
Procedure: as §4
as §3, with “allow” for “allowing”

[7] = tested on: thyroid follicle cells; assay: Ablation of thyroid follicle cells in vivo; set-up: species or system rat
[8] = transgenic rats treated with ACG for 12 days

SMILES: Nc1nc(=O)[nH]cc1F [5FC, 5-fluorocytosine]
- Effect of 5-fluorocytosine on fibroblast cells ([1]; control animals, 100 μg/ml): had no effect
- Survival of lung fibroblast cells (related to number of cells in control cultures without drug) ([1]; day 1 in culture): 101
- Survival of lung fibroblast cells (related to number of cells in control cultures without drug) ([1]; day 3 in culture): 105
- Survival of lung fibroblast cells (related to number of cells in control cultures without drug) ([1]; day 5 in culture): 98
- Survival of lung fibroblast cells (related to number of cells in control cultures without drug) ([1]; day 7 in culture): 97
- Survival of lung fibroblast cells (related to number of cells in control cultures without drug) ([1]; day 9 in culture): 93
- Survival of lung fibroblast cells (related to number of cells in control cultures without drug) ([1]; day 11 in culture): 96
- Difference in cell counts between cultures in the absence and presence of 5FC ([1]; control rats): no significant difference in cell counts
- Survival of lung fibroblast cells (related to number of cells in control cultures without drug) ([2]; day 1 in culture): 98
- Survival of lung fibroblast cells (related to number of cells in control cultures without drug) ([2]; day 3 in culture): 96
- Survival of lung fibroblast cells (related to number of cells in control cultures without drug) ([2]; day 5 in culture): 95
- Survival of lung fibroblast cells (related to number of cells in control cultures without drug) ([2]; day 7 in culture): 92
- Survival of lung fibroblast cells (related to number of cells in control cultures without drug) ([2]; day 9 in culture): 92
- Survival of lung fibroblast cells (related to number of cells in control cultures without drug) ([2]; day 11 in culture): 93
- Effect of 5-fluorocytosine on fibroblast cells ([2]; TG/TK/neo^r transgenic, 100 μg/ml): had no effect
- Survival of lung fibroblast cells (related to number of cells in control cultures without drug) ([3]; day 1 in culture): 94
- Survival of lung fibroblast cells (related to number of cells in control cultures without drug) ([3]; day 3 in culture): 5
- Survival of lung fibroblast cells (related to number of cells in control cultures without drug) ([3]; day 5 in culture): 3
- Survival of lung fibroblast cells (related to number of cells in control cultures without drug) ([3]; day 7 in culture): 3
- Survival of lung fibroblast cells (related to number of cells in control cultures without drug) ([3]; day 9 in culture): 4
- Survival of lung fibroblast cells (related to number of cells in control cultures without drug) ([3]; day 11 in culture): 4
- Originally-plated cells died, or were non-functional (failure to exclude trypan blue) ([3]; CD2/neo^r transgenic, 100 μg/ml, after 10 days culture in the presence of 5FC): 94%

SMILES: Nc1nc2c(ncn2COCCO)c(=O)[nH]1 [ACG, acycloguanosine]
- Survival of thyroid cells under ACG treatment ([4]; control animals, 10 μg/ml ACG): the cells derived from the control animals did
- Survival of thyroid cells (related to number of cells in control cultures without drug) ([4]; day 1 in culture): 94
- Survival of thyroid cells (related to number of cells in control cultures without drug) ([4]; day 3 in culture): 97
- Survival of thyroid cells (related to number of cells in control cultures without drug) ([4]; day 5 in culture): 98
- Survival of thyroid cells (related to number of cells in control cultures without drug) ([4]; day 7 in culture): 91
- Survival of thyroid cells (related to number of cells in control cultures without drug) ([4]; day 9 in culture): 92
- Survival of thyroid cells (related to number of cells in control cultures without drug) ([4]; day 11 in culture): 102
- Survival of thyroid cells (related to number of cells in control cultures without drug) ([5]; day 1 in culture): 98
- Survival of thyroid cells (related to number of cells in control cultures without drug) ([5]; day 3 in culture): 38
- Survival of thyroid cells (related to number of cells in control cultures without drug) ([5]; day 5 in culture): 12
- Survival of thyroid cells (related to number of cells in control cultures without drug) ([5]; day 7 in culture): 10
- Survival of thyroid cells (related to number of cells in control cultures without drug) ([5]; day 9 in culture): 8
- Survival of thyroid cells (related to number of cells in control cultures without drug) ([5]; day 11 in culture): 7
- Survival of thyroid cells under ACG treatment ([5]; TG/TK/neo^r transgenic, 10 μg/ml ACG): did not survive ACG treatment
- Survival of thyroid cells (related to number of cells in control cultures without drug) ([6]; day 1 in culture): 98
- Survival of thyroid cells (related to number of cells in control cultures without drug) ([6]; day 3 in culture): 90
- Survival of thyroid cells (related to number of cells in control cultures without drug) ([6]; day 5 in culture): 93
- Survival of thyroid cells (related to number of cells in control cultures without drug) ([6]; day 7 in culture): 93
- Survival of thyroid cells (related to number of cells in control cultures without drug) ([6]; day 9 in culture): 97
- Survival of thyroid cells (related to number of cells in control cultures without drug) ([6]; day 11 in culture): 88
- Effect on T3 and T4 ([7]; lower amounts of ACG per day): partial loss of T3 and T4
- Serum level of T4 ([7]; transgenic adult female rats, 50 mg ACG per day i.p. for 5 days, seven days after the final injection, N=6): less than 2.5 nM
- Histochemical analysis of thyroid glands [7, 8]: almost complete loss of follicular cells
- Thyroid gland weight, of the original weights [7, 8]: 7%
